Data published in publication PMC10412636, “An analysis of interactions between three structurally diverse anthocyanidins, as well as their glucosides, and model biological membranes, albumin, and plasmid DNA” (Scientific Reports, 2023).

Legend:
[1] = DPH fluorescence quenching, dissociation constant with MM liposome membrane; format: binding; settings: 37 °C
Description: (§1) Two types of liposomes were used to study interactions with biological membranes: liposomes mimicking the composition of cancer cell membranes (mimic membrane liposome—MM) and liposomes formed from lipids extracted from human blood erythrocyte membranes (red blood cell membrane liposome—RBCM). […] Both lipids, dissolved in chloroform (MM liposome) and n-decane (RBCM liposome), were evaporated under a nitrogen atmosphere, and then dried in a desiccator for 90 min under a vacuum. The obtained dry lipid film was hydrated in phosphate buffer, pH 7.4, obtaining a concentration of 0.1 mg/ml, and then vortexed for one minute until a homogeneous, milky suspension was observed. The mixture was sonicated (Sonic, Milano, Italia) for 15 min keeping the sample in a bath of ice water, thus providing a cooling temperature of 0 °C. The suspension was then processed (extrusion) through polycarbonate filters with pore diameters of 100 and 200 nm using a Lipex extruder (Evonik). Liposomes, which had been prepared according to this procedure, was used in fluorimetric studies.
(§2) The phenomenon of quenching the fluorescence of the DPH probe by biologically active substances enabled us to evaluate the partition coefficient (Kd, dissociation constant) of anthocyanins with both MM and RBCM liposome membranes. For this purpose, changes in the fluorescence intensity of this probe were checked and the coefficient was calculated using the equation[48]:2 1/F0/F-1=Kd/[liposomes]×1/[anthocyanins]+1/liposomes where F0—fluorescence intensity in the absence of anthocyanins (control sample), F—fluorescence intensity in the presence of anthocyanins, [liposomes]—concentration of liposomes in mg/ml, [anthocyanins]—concentration of anthocyanins tested mg/ml.
(§3) Liposomes (the concentration of lipids in the sample was 0.1 mg/ml) were incubated for 30 min with the appropriate probe (dissolved in DMF, 1 µM concentration), and then the tested anthocyanins were added (final concentration of 1 to 30 µM). The control sample consisted of liposomes and a fluorescent probe. Fluorescence was measured on a fluorimeter (Cary Eclipse, Varian, San Diego, USA) at 37 °C. The excitation wavelengths λex and emission wavelengths λem respectively: MC540—λexc = 540 nm, λem = 590 nm; DPH—λexc = 360 nm, λem = 425 nm. nm; TMA-DPH—λexc = 340 nm, λem = 430 nm.

[2] = MC540 probe fluorescence intensity in RBCM liposomes; set-up: species or system human; settings: 37 °C, positive = decrease
Description: as §1
(§4) To investigate these properties three fluorescent probes were used: MC540, TMA-DPH, and DPH. MC540 localizes to the outer, hydrophilic part of the membrane, within the region of the glycerol skeleton[44]. Changes in the fluorescence intensity of this probe were formulated as the relative change in intensity to the control as a function of anthocyanins concentration. The TMA-DPH and DPH probes are supposed to locate nearer to the interface and in the hydrophobic region, respectively[45]. The measurement of changes in the anisotropy of the TMA-DPH and DPH probes allowed us to reflect the mobility of the fluorescent probes in the membrane, and therefore to determine the fluidity of the bilayer[46]. Fluorescence anisotropy was calculated using the formula[47]:1 A=I‖-GI⊥/I‖+2GI⊥ where I‖ and I⊥ are the intensity of fluorescence in parallel and perpendicular directions, to the plane of polarization of the excitation wave, respectively. G is an apparatus constant that depends on the emission wavelength.
as §3

[3] = DPH probe fluorescence anisotropy in RBCM liposomes; set-up: species or system human; settings: for Changes in DPH anisotropy relative to the control: RBCM, negative = increase in anisotropy
Description: as §1, §4, §3

[4] = MC540 probe fluorescence intensity in MM liposomes; settings: 37 °C, positive = decrease
Description: as §1, §4, §3

pHbApr-1-Neo plasmid DNA = assay: TCSPC-FCS of PicoGreen-labelled plasmid DNA with anthocyanins; format: binding
Description: To evaluate the biological interaction with DNA molecules the anthocyanins were initially dissolved in ETOH (1 mM). […] Mixing of such solutions with the aqueous DNA solutions used in the studies never exceeded 1% concentration ETOH (v/v) in the final solution. The DNA plasmid was labelled by PicoGreen (CPicoGreen/CDNAbp = 0.02)[52]. The pHbApr-1-Neo plasmid (10 kbp and contour length 3.4 µm) was a generous gift from the laboratory of Prof. Maciej Ugorski (Department of Biochemistry and Molecular Biology, Wrocław University of Environmental and Life Sciences Wroclaw, Poland). PicoGreen-labelled DNA samples mixed with the appropriate amount of anthocyanins were left overnight and then measured. The increasing concentration of anthocyanins in the tested samples was expressed as the ratio of the molar concentration of anthocyanins per molar concentration of DNA base pairs in a given sample (comp/bp). The 100 µl samples were measured in Ibidi 8-well chambers. Each point on the graph is a single sample (average of 10 measurements). All measurements were performed at room temperature (25 °C). Time-correlated single-photon counting fluorescence correlation spectroscopy (TCSPC-FCS) was used to study the interaction of plasmid DNA at the single molecule level with all tested anthocyanins. […] Low power of 1uW (at the back aperture of the objective) was chosen to minimize photobleaching and saturation. In the detection plane, a pinhole (50um in diameter) was used and the signal was collected by a single photon avalanche diode (SPAD, Microphoton Devices, Bolzano, Italy). Photon arrival times were stored using fast electronics (Picoharp 300, PicoQuant) in time-tagged time-resolved recording mode. Two independent times were assigned to each detected photon: (1) a time after the beginning of the measurement and (2) a time after the previous laser pulse. The FCS data analysis was done using home-built routines (DevC++, Bloodshed Software and OriginPro70, OriginLab Corporation). The TCSPC data analysis was performed using SymPhoTime software (PicoQuant). Further details of the data evaluation are given elsewhere.

[5] = TMA-DPH probe fluorescence anisotropy in MM liposomes; settings: negative = increase in anisotropy
Description: as §1, §4, §3

[6] = TMA-DPH probe fluorescence anisotropy in RBCM liposomes; set-up: species or system human; settings: negative = increase in anisotropy
Description: Two types of liposomes were used to study interactions with biological membranes: liposomes mimicking the composition of cancer cell membranes (mimic membrane liposome—MM) and liposomes formed from lipids extracted from human blood erythrocyte membranes (red blood cell membrane liposome—RBCM). […] The RBCM liposome was according to the methodology described previously[42] with minor modifications[43]. Both lipids, dissolved in chloroform (MM liposome) and n-decane (RBCM liposome), were evaporated under a nitrogen atmosphere, and then dried in a desiccator for 90 min under a vacuum. The obtained dry lipid film was hydrated in phosphate buffer, pH 7.4, obtaining a concentration of 0.1 mg/ml, and then vortexed for one minute until a homogeneous, milky suspension was observed. The mixture was sonicated (Sonic, Milano, Italia) for 15 min keeping the sample in a bath of ice water, thus providing a cooling temperature of 0 °C. The suspension was then processed (extrusion) through polycarbonate filters with pore diameters of 100 and 200 nm using a Lipex extruder (Evonik). Liposomes, which had been prepared according to this procedure, was used in fluorimetric studies.
To investigate these properties three fluorescent probes were used: MC540, TMA-DPH, and DPH. MC540 localizes to the outer, hydrophilic part of the membrane, within the region of the glycerol skeleton[44]. […] The TMA-DPH and DPH probes are supposed to locate nearer to the interface and in the hydrophobic region, respectively[45]. The measurement of changes in the anisotropy of the TMA-DPH and DPH probes allowed us to reflect the mobility of the fluorescent probes in the membrane, and therefore to determine the fluidity of the bilayer[46]. Fluorescence anisotropy was calculated using the formula[47]:1 A=I‖-GI⊥/I‖+2GI⊥ where I‖ and I⊥ are the intensity of fluorescence in parallel and perpendicular directions, to the plane of polarization of the excitation wave, respectively. G is an apparatus constant that depends on the emission wavelength.
as §3

[7] = biological target: human serum albumin (HSA) (Homo sapiens, UniProt P02768); assay: Quenching of natural fluorescence of human serum albumin; format: binding; settings: HSA […] 10^–5 M, 37 °C
Description: The phenomenon of quenching the natural fluorescence of human serum albumin (HSA) was used to investigate the potential interaction of anthocyanins with this protein. […] Anthocyanins with concentrations ranging from 1 to 30 µM were added to HSA dissolved in phosphate buffer (1.5 × 10^–5 M) and then incubated at 37 °C for 20 min. Emission spectra were performed on a fluorimeter Cary Eclipse (Varian, San Diego, USA) at 37 °C. HSA fluorescence was excited with a wavelength of λ = 280 nm, the emission was measured in the range from 286 to 460 nm, and the fluorescence intensity was read at 345 nm where the emission maximum of HSA was located.
The Stern–Volmer equation was used to thoroughly describe the quenching mechanism of natural fluorescence and to determine the bindings parameters of HSA: anthocyanin complexes:4 F0/F=1+Kqτ0Q=1+KSV[Q] where F0—fluorescence intensity in the absence of anthocyanins (control sample), F—fluorescence intensity in the presence of anthocyanins, KSV—Stern–Volmer quenching constant (KSV = Kq·τ0), [Q]—concentration of quencher (tested compound), Kq—bimolecular quenching constant, τ0—a lifetime of the fluorophore in the absence of quencher the fluorescence lifetime of a biopolymer is calculated as 5 × 10^–9 s[51].
The apparent binding constants (Kb) and the number of binding sites (n) can be calculated using the following equation:5 log(F0-F/F]=logKb+nlog[Q]
F0 and F are the fluorescence intensities before and after the addition of the quencher. From the linear plot of log (F0 − F)/F versus log [Q], the value of Kb was obtained from the intercept.

[8] = DPH fluorescence quenching, dissociation constant with RBCM liposome membrane; format: binding, human; settings: 37 °C
Description: as §1, §2, §3

[9] = DPH probe fluorescence anisotropy in MM liposomes; settings: for Changes in DPH anisotropy relative to the control: MM, negative = increase in anisotropy
Description: as §1, §4, §3

Chain of human serum albumin (HSA) (P02768 25-609): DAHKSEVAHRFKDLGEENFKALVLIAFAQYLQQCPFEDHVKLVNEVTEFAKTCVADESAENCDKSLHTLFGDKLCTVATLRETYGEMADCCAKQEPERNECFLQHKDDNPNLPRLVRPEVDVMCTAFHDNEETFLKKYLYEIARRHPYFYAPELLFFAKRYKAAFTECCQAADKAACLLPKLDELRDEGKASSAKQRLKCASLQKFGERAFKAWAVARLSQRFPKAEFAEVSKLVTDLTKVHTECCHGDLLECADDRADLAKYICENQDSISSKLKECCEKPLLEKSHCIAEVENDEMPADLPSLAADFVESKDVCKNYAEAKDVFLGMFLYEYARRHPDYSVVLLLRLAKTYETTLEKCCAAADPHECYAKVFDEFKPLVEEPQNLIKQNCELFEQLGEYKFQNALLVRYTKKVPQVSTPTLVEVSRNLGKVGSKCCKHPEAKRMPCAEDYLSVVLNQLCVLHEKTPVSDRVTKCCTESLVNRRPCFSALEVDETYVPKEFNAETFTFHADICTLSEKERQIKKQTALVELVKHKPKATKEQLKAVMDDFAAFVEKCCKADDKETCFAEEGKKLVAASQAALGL

## COc1cc(-c2[o+]c3cc(O)cc(O)c3cc2O)cc(O)c1O [Pt, Petunidin]
[1]
  Kd: 10.4 ± 2.45 µM
[2]; 1 µM
  Changes in MC540 fluorescence intensity relative to the control: 16.68±0.58%
[2]; 5 µM
  Changes in MC540 fluorescence intensity relative to the control: 32.60±0.15%
[2]; 10 µM
  Changes in MC540 fluorescence intensity relative to the control: 43.35±1.60%
[2]; 20 µM
  Changes in MC540 fluorescence intensity relative to the control: 55.02±1.41%
[2]; 30 µM
  Changes in MC540 fluorescence intensity relative to the control: 61.93±1.58%
[2]; 30 µM, listed as petunidin
  Changes in MC540 fluorescence intensity relative to the control: 61.9 ± 1.6%
[3]; RBCM liposome, 20 µM
  highest percentage of an increase in DPH anisotropy relative to the control: 10.5 ± 0.7%
[3]; 1 µM
  Changes in DPH anisotropy relative to the control: -9.91±0.36%
[3]; 5 µM
  Changes in DPH anisotropy relative to the control: -8.46±0.42%
[3]; 10 µM
  Changes in DPH anisotropy relative to the control: -10.18±0.39%
[3]; 20 µM
  Changes in DPH anisotropy relative to the control: -10.51±0.67%
[3]; 30 µM
  Changes in DPH anisotropy relative to the control: -9.21±0.62%
[4]; 1 µM
  Changes in MC540 fluorescence intensity relative to the control: 17.63±1.11%
[4]; 5 µM
  Changes in MC540 fluorescence intensity relative to the control: 36.62±1.63%
[4]; 10 µM
  Changes in MC540 fluorescence intensity relative to the control: 50.22±5.62%
[4]; 20 µM
  Changes in MC540 fluorescence intensity relative to the control: 64.46±7.12%
[4]; 30 µM
  Changes in MC540 fluorescence intensity relative to the control: 72.51±3.32%
[4]; 30 µM, listed as petunidin
  Changes in MC540 fluorescence intensity relative to the control: 72.5 ± 3.3%
pHbApr-1-Neo plasmid DNA; comp/bp from 0 to 5, continuous decrease from 4.25 ns
  lifetime (LT): 2.3 ns
pHbApr-1-Neo plasmid DNA; comp/bp from 0 to 5, continuous decrease from 5.0
  Particle Number (PN): about 0
pHbApr-1-Neo plasmid DNA; comp/bp up to 0.8
  changes in plasmid tD, lower compared to those obtained for Pt 3-glc: ~3.5 fold
pHbApr-1-Neo plasmid DNA; tested range of comp/bp from 0 to 5
  decrease in the diffusion time (tD): 3.5 fold
[5]; 1 µM
  Changes in TMA-DPH anisotropy relative to the control: -5.05±0.11%
[5]; 5 µM
  Changes in TMA-DPH anisotropy relative to the control: -4.34±0.09%
[5]; 10 µM
  Changes in TMA-DPH anisotropy relative to the control: -2.97±0.04%
[5]; 20 µM
  Changes in TMA-DPH anisotropy relative to the control: -5.53±0.11%
[5]; 30 µM
  Changes in TMA-DPH anisotropy relative to the control: -5.92±0.33%
[6]; 1 µM
  Changes in TMA-DPH anisotropy relative to the control: -4.68±0.23%
[6]; 5 µM
  Changes in TMA-DPH anisotropy relative to the control: -0.95±0.03%
[6]; 10 µM
  Changes in TMA-DPH anisotropy relative to the control: -1.05±0.03%
[6]; 20 µM
  Changes in TMA-DPH anisotropy relative to the control: 1.13±0.07%
[6]; 30 µM
  Changes in TMA-DPH anisotropy relative to the control: 0.70±0.02%
[7]
  Stern Volmer constant KSV: 25.99 ± 1.77 × 10^3 M^−1
  number of binding sites n: 1.03 ± 0.03
[8]
  Kd: 15.3 ± 4.01 µM
[9]; MM liposome, 20 µM
  highest percentage of an increase in DPH anisotropy relative to the control: 17.6 ± 0.4%
[9]; 1 µM
  Changes in DPH anisotropy relative to the control: -13.00±0.31%
[9]; 5 µM
  Changes in DPH anisotropy relative to the control: -15.66±0.33%
[9]; 10 µM
  Changes in DPH anisotropy relative to the control: -17.48±0.09%
[9]; 20 µM
  Changes in DPH anisotropy relative to the control: -17.59±0.36%
[9]; 30 µM
  Changes in DPH anisotropy relative to the control: -14.74±0.10%
